From PubChem BioAssay AID2060484 (Molecular Pharmacology Branch, DTP, NCI, 2025) come the findings set out here.

“And” between values parts separate entries of the source, which are not always exact repeats. Equal entries are not always repeated. Where only a bound is given, the exact number is not on record here.

The subject of this experiment is SUM149PT spheroids with HUVEC/MSC, viability. As to the kind of experiment: Anticancer human tumor SUM149PT cell line growth inhibition [GQUAD].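 As to all read-outs here: spheroids exposed to drugs for seven days before readout.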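 As to viability, T/C: percent viability relative to DMSO vehicle control taken as 100%.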 The settings on record: for viability, T/C: stronger effect = lower value. The source says: DNA G-quadruplex Stabilizer Agents in Combinations in Complex Spheroids
A high-throughput screen of multi-cell type tumor spheroids was designed to identify active combinations of DNA G-quadruplex stabilizer agents and targeted small molecules. Complex spheroids include a stromal component modeled by human endothelial cells (HUVEC) and fibroblasts modeled by human mesenchymal stem cells (MSCs). The concentration ranges selected for each drug and investigational agent were based upon clinically achievable concentrations if the clinical Cmax of the agent was known.
Compounds. The drugs and investigational agents: pidnarulex (CX-5461; NSC782164), APTO-253 (NSC789042), BRACO-19 (NSC847499), peposertib (NSC802822), ceralasertib (NSC780249), elimusertib (NSC800525), camonsertib (NSC841442), AZD-1390 (NSC803789), olaparib (NSC753686), talazoparib (NSC767125), ART-558 (NSC835418), sotorasib (NSC818433), MRTX-1133 (NSC836407), SN-38 (NSC673596), topotecan (NSC609699), etoposide (NSC141540), doxorubicin (NSC123127), gemcitabine (NSC613327), 5-fluorouracil (NSC19893), paclitaxel (NSC125973), vemurafenib (NSC761431), panobinostat (NSC761190), R-306465 (JNJ-16241199; NSC773264), adavosertib (NSC754352), TP-3654 (NSC805149), carboplatin (NSC241240), KSQ-4279 (NSC840948), and staurosporine (NSC755774) were obtained from the National Cancer Institute (NCI) Developmental Therapeutics Program Chemical Repository (34). The FDA-approved anticancer drug set is available from the NCI Developmental Therapeutics Program. […] The stock solutions were prepared in dimethyl sulfoxide (DMSO, Sigma-Aldrich, St. Louis, MO, cat. D2650) at 800-fold the tested concentration and stored at -70 degrees C prior to their use. All drugs and investigational agents were tested over a range starting from a high concentration at or near the clinical Cmax and decreasing in half-log increments. If the clinical Cmax for an agent had not been determined, the highest concentration tested was 10 microM.
2.3 Cell Culture. All cells were maintained in an incubator at 37 degrees C and 5% CO2 with 95% humidity. The PDC lines were cultured according to standard operating procedures established by the NCI PDMR. All PDCs were thawed and cultured in Matrigel-coated flasks prepared with a working solution of 1X Ham's F-12 nutrient mix, without supplementation (Invitrogen, cat. 11765054), 100 U/mL penicillin-streptomycin (Invitrogen, cat. 15140122), and 2.5% Matrigel (Corning Inc., cat. 354248) for the first three passages. The 857933-349-R-J2-PDC line was cultured in 6C/Colon 1B media, which includes advanced DMEM/F-12 (Thermo Fisher Scientific, cat. 12634028), 10 mM HEPES (Thermo Fisher Scientific, cat. 15630080), 1X GlutaMAX supplement (Thermo Fisher Scientific, cat. 35050061), 0.1 mg/mL primocin (InvivoGen, cat. ant-pm-2), 10% defined fetal bovine serum, heat inactivated (HyClone Laboratories Inc., cat. SH30070.03HI), 50% L-WRN conditioned media (ATCC, cat. CRL-3276), 1.25 mM N-Acetyl-L-cysteine (Sigma-Aldrich, cat. A9165), 10 mM nicotinamide (Sigma-Aldrich, cat. N0636), 1X B-27 supplement (Thermo Fisher Scientific, cat. 17504044), 1X N-2 supplement (Thermo Fisher Scientific, cat. 17502048), 10 microM Y-27632 dihydrochloride (Tocris Bioscience, cat. 1254), and 50 ng/mL human EGF recombinant protein (Thermo Fisher Scientific, cat. PHG0311). The 485176-168-R4-J1-PDC line was cultured in Panc media, which includes all 6C/Colon 1B media components plus 100 ng/mL human FGF-10 (Thermo Fisher Scientific, cat. 100-26), 500 nM SB-431542 (Selleckchem, cat. S1067), and gastrin (Tocris, cat. 3006).
[…]

Take `COc1cc(C2c3cc4c(cc3C(OC3OC5COC(C)OC5C(O)C3O)C3COC(=O)C23)OCO4)cc(OC)c1O` (centres undefined): the viability, T/C (compound 0.0316 µM) was 99.6% and 98.6% and 97.5%; the viability, T/C (compound 0.1 µM) was 88.2% and 81.7% (2×); the viability, T/C (compound 0.316 µM) was 55.6% and 52.5% and 61.4%; the viability, T/C (compound 1 µM) is 49.3% and 48.9% and 58.8%; the viability, T/C (compound 3.16 µM) was 36% and 29.3% and 42.2%; the viability, T/C (compound 10 µM) is 18.6% and 14.3% and 22%. Further, for the setting “curve of compound”, the IC50 was 837 nM and 645 nM and 1340 nM.

As for `COc1ccc([C@@H](O)c2cc(-c3ncnc4cc(N5CCOCC5)ccc34)c(F)cc2Cl)nn1`, the viability, T/C runs as follows: (compound 0.0316 µM) 91.9% and 96.4% and 101%; (compound 0.1 µM) 89.4% and 85.8% and 88.5%; (compound 0.316 µM) 82.2% and 83.3% and 78.4%; (compound 1 µM) 55.6% and 57.7% and 45%; (compound 3.16 µM) 35% and 38.2% and 27.2%; (compound 10 µM) 22.3% and 28.1% and 20.7%. Besides, under “curve of compound”, the IC50 is 1420 nM and 1620 nM and 867 nM.

Regarding `COc1cccc2c1C(=O)c1c(O)c3c(c(O)c1C2=O)CC(O)(C(=O)CO)CC3OC1CC(N)C(O)C(C)O1` (centres undefined), the viability, T/C runs as follows: (compound 0.0316 µM) 89.5% and 100% and 94%; (compound 0.1 µM) 56.8% and 67.1% and 55.3%; (compound 0.316 µM) 39.5% and 52.4% and 38.2%; (compound 1 µM) 16.9% and 25.1% and 15.2%; (compound 3.16 µM) 1.91% and 4.16% and 1.88%; (compound 10 µM) 1.41% and 1.73% and 1.61%. For the same compound, the IC50 (curve of compound) was 159 nM and 270 nM and 147 nM.

For `Cc1[nH]c2ccccc2c1CCNCc1ccc(/C=C/C(=O)NO)cc1`, the viability, T/C by setting is: (compound 0.000999 µM) 104% and 108% and 97.7%; (compound 0.00316 µM) 106% and 89.7% and 105%; (compound 0.00999 µM) 90.3% and 107% and 101%; (compound 0.0316 µM) 94.4% and 97.2% and 110%; (compound 0.0999 µM) 92.1% and 91.4% and 106%; (compound 0.316 µM) 41.8% and 37.1% and 34.2%. Moreover, the IC50 (curve of compound) is 264 nM and 241 nM and 244 nM.

Take `Cc1cccc(N(C)C(=O)C2C(O)CCN2c2nc(C)cc(C(F)(F)F)c2C#N)c1` (centres undefined): the viability, T/C runs as follows: (compound 0.0316 µM) 104% and 99.7% and 111%; (compound 0.1 µM) 97.8% and 92.2% and 88.8%; (compound 0.316 µM) 82.7% and 99.5% and 103%; (compound 1 µM) 89% and 97.5% and 98.3%; (compound 3.16 µM) 102% and 110% and 105%; (compound 10 µM) 103% and 108% and 100%. Moreover, the IC50 (curve of compound) was above 10000 nM.

Regarding `Cc1cnc(CNC(=O)c2c(=O)c3ccc(N4CCCN(C)CC4)nc3n3c2sc2ccccc23)cn1`, the viability, T/C runs as follows: (compound 0.0316 µM) 87.8% [middle of 12 runs]; (compound 0.1 µM) 70% [middle of 12 runs]; (compound 0.316 µM) 57.5% [middle of 12 runs]; (compound 1 µM) 46.9% [middle of 12 runs]; (compound 3.16 µM) 36.2% [middle of 12 runs]. Further, under “compound alone, run of 03/18/2024”, the IC50 is 725 nM [middle of 12 runs].

For `Cn1ncnc1[C@H]1c2n[nH]c(=O)c3cc(F)cc(c23)N[C@@H]1c1ccc(F)cc1`, the viability, T/C runs as follows: (compound 0.000999 µM) 98.5% and 103% and 109%; (compound 0.00316 µM) 97.1% and 96.5% and 102%; (compound 0.00999 µM) 97.5% and 93.8% and 91.6%; (compound 0.0316 µM) 81.4% and 91.5% and 83.6%; (compound 0.0999 µM) 68.1% (2×) and 91.5%; (compound 0.316 µM) 54.4% and 76.8% and 53.9%. The IC50 (curve of compound) was above 316 nM.

`Nc1ccn(C2OC(CO)C(O)C2(F)F)c(=O)n1` (centres undefined): the viability, T/C is, setting by setting: (compound 0.0316 µM) 74.9% and 85.4% and 74.1%; (compound 0.1 µM) 37.6% and 48.4% and 42%; (compound 0.316 µM) 24.5% and 38.1% and 20.7%; (compound 1 µM) 23.8% and 31.2% and 18.5%; (compound 3.16 µM) 16.5% (2×) and 24.5%; (compound 10 µM) 15.4% and 24.8% and 17%. Further, the IC50 (curve of compound) was 69.3 nM and 108 nM and 75.1 nM.

Consider `O=C(c1cc(Cc2n[nH]c(=O)c3ccccc23)ccc1F)N1CCN(C(=O)C2CC2)CC1`, for which the viability, T/C by setting is: (compound 0.0316 µM) 92.5% and 110% and 104%; (compound 0.1 µM) 97.8% and 93.5% and 82.5%; (compound 0.316 µM) 92.7% and 102% and 99.8%; (compound 1 µM) 108% and 96.9% and 101%; (compound 3.16 µM) 106% and 108% and 97.4%; (compound 10 µM) 70.6% and 86.7% and 69.7%. The IC50 (curve of compound) is above 10000 nM.

`O=c1[nH]cc(F)c(=O)[nH]1`: the viability, T/C is, setting by setting: (compound 0.0316 µM) 103% and 95.7% and 106%; (compound 0.1 µM) 93.6% and 90.8% and 93.9%; (compound 0.316 µM) 108% and 110% and 101%; (compound 1 µM) 102% and 107% and 96%; (compound 3.16 µM) 56.9% and 55.7% and 61.6%; (compound 10 µM) 51.6% and 43.3% and 50.6%. Further, where the note is “curve of compound”, the IC50 is > 10000 nM and 5360 nM.
